How the values were obtained:
Test in all cases: greenhouse experiment, pre-emergence treatment
Conditions in all cases: pre-emergence method, application rate 0.500 kg/ha; scale from 0 to 100
ABUTH = assay type: in vivo, Abutilon theophrasti
Source text: (§1) The seeds of the test plants were sown separately for each species. For the pre-emergence treatment, the active ingredients, which had been suspended or emulsified in water, were applied directly after sowing by means of finely distributing nozzles. The containers were irrigated gently to promote germination and growth and subsequently covered with transparent plastic hoods until the plants had rooted. This cover caused uniform germination of the test plants, unless this had been impaired by the active ingredients. Depending on the species, the plants were kept at 10-25° C. or 20-35° C., respectively. The test period extended over 2 to 4 weeks. During this time, the plants were tended, and their response to the individual treatments was evaluated. Evaluation was carried out using a scale from 0 to 100. 100 means no emergence of the plants, or complete destruction of at least the aerial moieties, and 0 means no damage, or normal course of growth. A moderate herbicidal activity is given at values of at least 60, a good herbicidal activity is given at values of at least 70, and a very good herbicidal activity is given at values of at least 85. The plants used in the greenhouse experiments were of the following species: [table]

AMARE = assay type: in vivo, Amaranthus retroflexus
Source text: as §1

SETFA = assay type: in vivo, Setaria faberi
Source text: as §1

What does the source list for `CC(C)Oc1cccc(F)c1Nc1nc(N)nc(C(C)(C)F)n1` [Example 1, N2-(2-fluoro-6-isopropoxy-phenyl)-6-(1-fluoro-1-methyl-ethyl)-1,3,5-triazine-2,4-diamine]?
herbicidal activity against ABUTH (ABUTH): very good (a very good herbicidal activity is given at values of at least 85); herbicidal activity against AMARE (AMARE): very good (a very good herbicidal activity is given at values of at least 85); herbicidal activity against SETFA (SETFA): very good (a very good herbicidal activity is given at values of at least 85)

Source: patent US20170029383A1, “Diaminotriazine Derivatives as Herbicides” (BASF SE, priority 2014, published 2017)
